We go through two molecules from patent US20230035606A1, “AN ACCURATE AND COMPREHENSIVE CARDIAC TROPONIN I ASSAY ENABLED BY NANOTECHNOLOGY AND PROTEOMICS” (Wisconsin Alumni Research Foundation, priority 2019, published 2023).

For experiment [1], the target named is cTnI (Homo sapiens, UniProt P19429). The following applies: peptide evolved by phage display and in silico evolution; targets cTnI residues 114-144; read-out: binding affinity (Kd); cited from earlier work.
The target of experiment [2] is T1, human serum albumin (HSA) (human, UniProt P02768 25-609).
T1 construct: mature; also called C-HSA; C-C-HSA
T1 sequence (P02768 25-609): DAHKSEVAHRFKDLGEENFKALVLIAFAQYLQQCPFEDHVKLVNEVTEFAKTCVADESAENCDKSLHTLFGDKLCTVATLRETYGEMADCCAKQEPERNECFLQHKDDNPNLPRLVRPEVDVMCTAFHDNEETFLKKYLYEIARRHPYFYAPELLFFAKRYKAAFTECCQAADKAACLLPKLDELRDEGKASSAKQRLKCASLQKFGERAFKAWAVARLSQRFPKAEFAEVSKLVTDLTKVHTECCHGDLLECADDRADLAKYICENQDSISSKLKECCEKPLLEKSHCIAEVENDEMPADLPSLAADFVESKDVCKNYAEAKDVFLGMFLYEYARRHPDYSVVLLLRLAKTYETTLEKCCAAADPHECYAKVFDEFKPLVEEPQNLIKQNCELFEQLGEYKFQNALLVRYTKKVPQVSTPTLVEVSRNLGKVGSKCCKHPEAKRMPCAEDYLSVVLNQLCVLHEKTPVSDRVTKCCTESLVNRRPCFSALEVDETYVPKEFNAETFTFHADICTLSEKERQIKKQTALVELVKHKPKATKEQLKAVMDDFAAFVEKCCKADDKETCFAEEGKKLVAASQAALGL
The experiment can be described thus: nanoparticle pull-down from human serum (10 mg) spiked with cTnI, SDS-PAGE and top-down LC/MS. As to the method:
To this end, cTnI enrichment was performed from human serum spiked-in with the cTnI extracted from the same donor, DCM, and post-mortem heart samples as in FIGS. 4-6. The endogenous cTnI obtained from the different human heart samples were used as the reference cTnI sources and served to mimic cTnI found in the blood.
Comparison of the cTnI enrichment performance of the NP-Pep platform against the agarose-mAb or agarose-Pep platform from human serum spiked with cTnI. The enrichment workflow was performed in a cold room held at 4° C. to minimize possible artifactual protein modifications, such as oxidation. NP-Control (NP-BAPTES),NP-Pep (Fe₃O₄-BAPTES-Peptide), Agarose-Control beads (no coupling), Agarose-Pep beads, and Agarose-mAb beads were incubated with in a protein loading mixture containing human male AB serum (10 mg) and sarcomeric tissue extract obtained from healthy donor heart tissue, diseased heart tissue of DCM, and post-mortem heart tissue containing 306 ng cTnI, 482 ng cTnI, and 465 ng cTnI in the protein extract, respectively. cTnI values were determined by ELISA quantification as previously described. The loading mixture (L), flow through (F), and elution mixture (E) were collected, desalted using a 10 kDa MWCO, and buffer exchanged prior to SDS-PAGE gel analysis or LC-MS analysis as described in the tissue enrichment protocol.

Side chains are listed from the residue outwards. Ends that are not written are not given here. BAPTES = N-(3-(triethoxysilyl)propyl)buta-2,3-dienamide; Fe3O4 nanoparticle = not defined here

Sequence of cTnI (P19429 whole entry, the tested form may be a part): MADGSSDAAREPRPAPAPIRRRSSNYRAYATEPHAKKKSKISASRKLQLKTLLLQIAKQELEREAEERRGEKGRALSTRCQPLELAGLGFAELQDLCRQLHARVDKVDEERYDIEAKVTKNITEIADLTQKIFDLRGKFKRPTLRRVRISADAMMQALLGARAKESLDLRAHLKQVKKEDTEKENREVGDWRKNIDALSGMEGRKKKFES

HWQIAYNEHQWQ: the Kd in experiment [1] is 0.27 nM.

B1: Fe3O4-BAPTES-Peptide NPs (NP-Pep): high affinity cTnI-binding peptide HWQIAYNEHQWQC on BAPTES-silanized Fe3O4 nanoparticles (peptide)
peptide: HWQIAYNEHQWQC([BAPTES-Fe3O4 nanoparticle])
modifications: not fully specified; reading uncertain
notes: Synthetic peptide (GenScript) found by phage display and in silico evolution (literature); Many copies on each nanoparticle (about 1.5 peptide/nm^2 in the text); In the assay it stood on the particle, not free; also called NP-Peptide; Fe3O4-Peptide NPs
Turning to B1, the binding result in experiment [2] is reported as “no binding”.
